Laboratory results: the supplement of paper PMC10307832

Legend:
Assay in all cases: relative viability (nuclei count vs DMSO), 5 days (fraction); higher = more cells survive
[1] = compound: O=C(/C=C/c1ccccc1)NC(NC(=S)Nc1cccc2cccnc12)C(Cl)(Cl)Cl [Salubrinal] + Cc1nc(Nc2ncc(C(=O)Nc3c(C)cccc3Cl)s2)cc(N2CCN(CCO)CC2)n1 [Dasatinib] (partner 0.075 µM)
Summary of the method: (§1)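 Five library-drug doses in √10 steps were combined with a fixed anchor-drug dose, or a single drug was given alone, by pin tool to lung cancer cell lines in 1536-well plates the day after seeding. Nuclei were stained and counted after 5 days. Relative viability is the nuclei count in treated wells over that in vehicle wells, taken as the median of duplicate plates.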

[2] = compound: Cc1ccc2nc(NCCN)c3ncc(C)n3c2c1 + Nc1ncn([C@H]2C[C@H](O)[C@@H](CO)O2)c(=O)n1 [Decitabine] (partner 2 µM)
Summary of the method: as §1

[3] = compound: O=C(/C=C/c1ccccc1)NC(NC(=S)Nc1cccc2cccnc12)C(Cl)(Cl)Cl [Salubrinal] + CCNC(=O)c1noc(-c2cc(C(C)C)c(O)cc2O)c1-c1ccc(CN2CCOCC2)cc1 [Luminespib] (partner 0.01 µM)
Summary of the method: as §1

[4] = compound: Cc1ccc2nc(NCCN)c3ncc(C)n3c2c1 + CC(C)C[C@H](NC(=O)[C@H](Cc1ccccc1)NC(=O)c1cnccn1)B(O)O [Bortezomib] (partner 0.002 µM)
Summary of the method: as §1

Cell Line | relative viability ([1]; first compound 0.08 µM) | relative viability ([1]; first compound 0.253 µM) | relative viability ([1]; first compound 0.8 µM) | relative viability ([1]; first compound 2.53 µM) | relative viability ([1]; first compound 8 µM) | relative viability ([2]; first compound 0.04 µM) | relative viability ([2]; first compound 0.1265 µM) | relative viability ([2]; first compound 0.4 µM) | relative viability ([2]; first compound 1.265 µM) | relative viability ([2]; first compound 4 µM) | relative viability ([3]; first compound 0.08 µM) | relative viability ([3]; first compound 0.253 µM) | relative viability ([3]; first compound 0.8 µM) | relative viability ([3]; first compound 2.53 µM) | relative viability ([3]; first compound 8 µM) | relative viability ([4]; first compound 0.04 µM) | relative viability ([4]; first compound 0.1265 µM) | relative viability ([4]; first compound 0.4 µM) | relative viability ([4]; first compound 1.265 µM) | relative viability ([4]; first compound 4 µM)
HCC-15 | 0.723 | 0.586 | 0.701 | 0.627 | 0.498 | 0.624 | 0.693 | 0.474 | 0.598 | 0.522 | 0.363 | 0.294 | 0.245 | 0.468 | 0.206 | 1.02 | 1 | 0.864 | 0.975 | 0.783
HCC-827 | 0.357 | 0.251 | 0.27 | 0.326 | 0.393 | 0.335 | 0.325 | 0.333 | 0.391 | 0.284 | 0.694 | 0.411 | 0.425 | 0.739 | 0.551 | 1.12 | 1.05 | 0.958 | 1.09 | 1.01
HOP-62 | 0.662 | 0.586 | 0.703 | 0.742 | 0.478 | 0.24 | 0.209 | 0.241 | 0.177 | 0.234 | 0.936 | 0.676 | 0.968 | 0.882 | 0.861 | 1.02 | 0.692 | 0.613 | 0.86 | 0.432
LC-2-ad | 0.543 | 0.354 | 1.11 | 0.581 | 0.448 | 0.728 | 0.728 | 0.705 | 0.712 | 0.768 | 1.06 | 1.13 | 1.05 | 0.979 | 0.98 | 1.06 | 0.978 | 1 | 1.02 | 0.81
LCLC-97TM1 | 1.02 | 0.731 | 1.01 | 0.969 | 0.782 | 0.215 | 0.21 | 0.244 | 0.22 | 0.236 | 0.894 | 0.798 | 0.823 | 0.849 | 0.842 | 0.846 | 0.614 | 0.767 | 0.937 | 0.585
LCLC-103H | 0.501 | 0.35 | 0.514 | 0.53 | 0.507 | 0.71 | 0.81 | 0.731 | 0.717 | 0.735 | 1.11 | 0.82 | 1.02 | 1.04 | 0.916 | 1.15 | 1.23 | 0.944 | 1.2 | 1.04
LOU-NH91 | 0.565 | 0.481 | 0.672 | 0.56 | 0.499 | 0.814 | 0.807 | 0.808 | 0.827 | 0.797 | 0.304 | 0.381 | 0.358 | 0.305 | 0.386 | 0.494 | 0.587 | 0.556 | 0.529 | 0.423
LU99A | 0.537 | 0.597 | 0.688 | 0.593 | 0.416 | 1 | 0.922 | 0.91 | 0.812 | 0.833 | 0.234 | 0.264 | 0.293 | 0.243 | 0.248 | 1.26 | 1.08 | 1.07 | 1.2 | 1
